“And” between values parts separate entries of the source, which are not always exact repeats. Equal entries are not always repeated.
Legend:
Assay type in all cases: cell-based
Candida albicans [1] = assay: EF-3 mRNA RT-PCR viability assay (preservative efficacy testing); conditions: 10^5 cells
Excerpt: The specific system for C. albicans is designed on the mRNA of the EF-3 gene. This system is species-specific. The forward primer, the forward probe and the reverse primer hybridize in the internal sequence of the mRNA of the EF-3 gene. The amplification is thus effective only if the EF-3 mRNAs are present in the cells. FIG. 5 illustrates C. albicans EF-3 mRNA specific system designed in the internal sequence of the EF-3 mRNA for use with RT-PCR (forward primer, reverse primer, and forward probe).
(§1) Assays such as those disclosed herein, and assays developed under the guidelines of the provided examples, can be used in Formulation Screening and/or Preservative Efficacy Testing. An exemplary protocol is as follows: non-treated (or viable) and preservative-treated cells are analyzed in parallel with the same procedure and the same reagents: • Cells are calibrated to an expected density (CFU/ml) and collected by centrifugation on a filter membrane. • Two milliliters of RNA Booster (nutrients) are applied to the membrane of the filtration unit and these are incubated two hours for bacteria and four hours for fungi at 35° C.±2° C. (or appropriate temperature). • After incubation, the filtration units are centrifuged to remove the RNA Booster and 1.5 milliliters of lysis buffer are added to each membrane. • Cell lysates are recovered manually by pipetting and transferred into a lysis tube for a mechanical lysis process. • Lysate is then transferred in a sample prep tube. • RNA is extracted and purified using a known nucleic acid isolation method (i.e., RNA magnetic beads, silica resin). • DNA is removed by DNAse treatment to ensure predominantly an RNA target. • Eluted RNA is amplified by RT-PCR. The master mix used for the RT-PCR contains all reagents needed for the RT-PCR including specific primers and probe targeting the pre-rRNA or EF-3 mRNA sequences.
(§2) The referenced guidelines followed for this assay are the European Pharmacopoeia (EP)—Chapter 5.1.3 <<Efficacy of Antimicrobial Preservation>> and the United States Pharmacopeia (USP)—Chapter 51 <<Antimicrobial Effectiveness Testing>>. The value obtained by RT-PCR for the non-treated cells is compared to the value obtained for the treated cells. As used herein Ct stands for threshold cycle; i.e., the intersection between an amplification curve and a threshold line. According to the EP requirements, in a positive result as disclosed herein the difference of the Ct values is at least 3 logs, which corresponds to a ΔCt≧10 for bacteria and at least 2 logs, which corresponds to a ΔCt≧6.6 for fungi, after one day (24 hours) and seven days, respectively, for bacteria and fungi, of preservative treatment. USP requires data analysis after seven days and fourteen days for bacteria and fungi, respectively.
(§3) Preservative treatments were evaluated at high cells concentrations (10^6 and 10^5 cells per assay) that are commonly used for formulation screening. Five replicates at each cell concentration were analyzed. The Ct value corresponds to the RT-PCR cycle for which the level of fluorescence is outside the fluorescence background. The method compares Ct values for non-treated and treated cells and is expressed as the ΔCt.
(§4) The tables set forth below summarize the Ct values obtained for six bacteria and two fungi using six treatments: Heat, Isopropanol, Preservatives BAC, Poly-Q and IPBC and a commercial contact lens solution. Ct values obtained for non-treated cells (viable) are compared to Ct values obtained for treated cells. The ΔCt calculated is reported and must be ≧10 to meet the specification of 3 logs reduction for bacteria and must be ≧6.6 to meet the specification of 2 logs reduction for fungi. All assays are performed on the BD Max6 instrument from Becton Dickinson. Data are obtained by multiple operators on different days.

Serratia marcescens [2] = assay: pre-rRNA RT-PCR viability assay (preservative efficacy testing)
Excerpt: (§5) The specific systems for E. coli, B. subtilis and S. marcescens are designed on the 3′ end of the 16S rRNA transcript. The three systems are species-specific. In these examples, the reverse primer hybridizes on the pre-rRNA region and the forward primer and probe in the mature rRNA region. The amplification will therefore be effective only if pre-rRNAs are present in the cells. FIG. 2 illustrates E. coli, B. subtilis and S. marcescens pre-rRNA-specific systems designed in the 3′ end of the 16S pre-rRNA for use with RT-PCR (forward primer, reverse primer, and forward probe).
as §1, §2, §3, §4

Escherichia coli [3] = assay: as above
Excerpt: as §5, §1, §2, §3, §4

Serratia marcescens [4] = assay: Control plate of treated cells (colonies); conditions: 10^6 cells
Pseudomonas aeruginosa [5] = assay: Control plate of treated cells (colonies); conditions: 10^6 cells
Aspergillus brasiliensis [6] = assay: pre-rRNA RT-PCR viability assay (preservative efficacy testing); conditions: 10^6 cells
Excerpt: The specific system for A. brasiliensis is designed on the 5′ end of the 5.8S rRNA. This system is species-specific. The forward primer hybridizes in the pre-rRNA region and the reverse primer and the forward probe in the mature rRNA region. The amplification is thus effective only if pre-rRNAs are present in the cells. FIG. 4 illustrates A. brasiliensis pre-rRNA-specific systems designed in the 5′ end of the 5.8S pre-rRNA for use with RT-PCR (forward primer, reverse primer, and forward probe).
as §1, §2, §3, §4

Candida albicans [7] = assay: Control plate of treated cells (colonies); conditions: from day 1 to day 14 at room temperature (day not specified); 10^5 cells
Pseudomonas aeruginosa [8] = assay: pre-rRNA RT-PCR viability assay (preservative efficacy testing)
Excerpt: (§6) The specific systems for S. aureus, P. aeruginosa and S. epidermidis are designed on the 5′ end of the 23S rRNA. The three systems are species-specific. The forward primer hybridizes in the pre-rRNA region and the reverse primer and the forward probe in the mature rRNA region. The amplification is thus effective only if pre-rRNAs are present in the cells. FIG. 3 illustrates S. aureus, P. aeruginosa and S. epidermidis pre-rRNA-specific systems designed in the 5′ end of the 23S pre-rRNA for use with RT-PCR (forward primer, reverse primer, and forward probe).
as §1, §2, §3, §4

Staphylococcus aureus [9] = assay: as above
Excerpt: as §6, §1, §2, §3, §4

Escherichia coli [10] = assay: Control plate of treated cells (colonies); conditions: 10^6 cells
Staphylococcus aureus [11] = assay: Control plate of treated cells (colonies); conditions: 10^6 cells
Aspergillus brasiliensis [12] = assay: Control plate of treated cells (colonies); conditions: from day 1 to day 7 at room temperature (day not specified); 10^6 cells
[13] = 24 H at room temperature, 10^5 cells
[14] = 24 H at room temperature, 10^6 cells
[15] = 1 H at room temperature, 10^5 cells
[16] = 1 H at room temperature, 10^6 cells

Benzalkonium Chloride [BAC]
Ct Treated (Candida albicans [1]; Day 1 at room temperature): 33.70 and 32.70 and 31.60 and 29.30 | Mean Ct (Treated) (Candida albicans [1]; Day 1 at room temperature): 32.00 | Δ Ct Viable − Dead (Candida albicans [1]; Day 1 at room temperature): 13.90 | Mean Ct (Treated) (Candida albicans [1]; Day 7 at room temperature): 33.67 | Δ Ct Viable − Dead (Candida albicans [1]; Day 7 at room temperature): 15.57 | Mean Ct (Treated) (Candida albicans [1]; Day 14 at room temperature): 32.23 | Δ Ct Viable − Dead (Candida albicans [1]; Day 14 at room temperature): 14.13 | Mean Ct (Treated) (Serratia marcescens [2]; [13]): 36.13 | Δ Ct Viable − Dead (Serratia marcescens [2]; [13]): 20.09 | Ct Treated (Serratia marcescens [2]; [14]): 34.20 and 34.30 and 32.80 and 35.50 | Mean Ct (Treated) (Serratia marcescens [2]; [14]): 34.20 | Δ Ct Viable − Dead (Serratia marcescens [2]; [14]): 22.28 | Ct Treated (Escherichia coli [3]; [13]): 32.65 and 31.54 and 31.77 and 32.76 and 32.45 | Mean Ct (Treated) (Escherichia coli [3]; [13]): 32.23 | Δ Ct Viable − Dead (Escherichia coli [3]; [13]): 18.57 | Ct Treated (Escherichia coli [3]; [14]): 32.61 and 34.26 and 33.74 and 30.48 and 33.39 | Mean Ct (Treated) (Escherichia coli [3]; [14]): 32.90 | Δ Ct Viable − Dead (Escherichia coli [3]; [14]): 21.33 | Colonies on control plate of treated cells (Serratia marcescens [4]; 24 H at room temperature): NC = Negative Control - Control plate of treated cells (10^6 cells) shows no colony on plate. | Colonies on control plate of treated cells (Pseudomonas aeruginosa [5]; 24 H at room temperature): NC = Negative Control - Control plate of treated cells (10^6 cells) shows no colony on plate. | Ct Treated (Aspergillus brasiliensis [6]; Day 1 at room temperature): 21.80 and 21.60 and 22.10 | Mean Ct (Treated) (Aspergillus brasiliensis [6]; Day 1 at room temperature): 21.83 | Δ Ct Viable − Dead (Aspergillus brasiliensis [6]; Day 1 at room temperature): 11.63 | Ct Treated (Aspergillus brasiliensis [6]; Day 2 at room temperature): 22.40 and 21.90 and 23.90 | Mean Ct (Treated) (Aspergillus brasiliensis [6]; Day 2 at room temperature): 22.73 | Δ Ct Viable − Dead (Aspergillus brasiliensis [6]; Day 2 at room temperature): 12.53 | Ct Treated (Aspergillus brasiliensis [6]; Day 7 at room temperature): 22.60 and 24.70 and 22.50 | Mean Ct (Treated) (Aspergillus brasiliensis [6]; Day 7 at room temperature): 23.27 | Δ Ct Viable − Dead (Aspergillus brasiliensis [6]; Day 7 at room temperature): 13.07 | Colonies on control plate of treated cells (Candida albicans [7]): NC = Negative Control - Control plate of treated cells (10^5 cells) shows no colony on plate. | Mean Ct (Treated) (Pseudomonas aeruginosa [8]; [13]): 31.92 | Δ Ct Viable − Dead (Pseudomonas aeruginosa [8]; [13]): 12.39 | Mean Ct (Treated) (Pseudomonas aeruginosa [8]; [14]): 30.72 | Δ Ct Viable − Dead (Pseudomonas aeruginosa [8]; [14]): 14.53 | Ct Treated (Staphylococcus aureus [9]; [13]): 29.75 and 30.23 and 29.39 and 29.28 and 30.03 | Mean Ct (Treated) (Staphylococcus aureus [9]; [13]): 29.73 | Δ Ct Viable − Dead (Staphylococcus aureus [9]; [13]): 12.29 | Ct Treated (Staphylococcus aureus [9]; [14]): 26.23 and 27.50 and 26.54 and 26.71 and 26.64 | Mean Ct (Treated) (Staphylococcus aureus [9]; [14]): 26.72 | Δ Ct Viable − Dead (Staphylococcus aureus [9]; [14]): 12.65 | Colonies on control plate of treated cells (Escherichia coli [10]; 24 H at room temperature): NC = Negative Control - Control plate of treated cells (10^6 cells) shows no colony on plate. | Colonies on control plate of treated cells (Staphylococcus aureus [11]; 24 H at room temperature): NC = Negative Control - Control plate of treated cells (10^6 cells) shows no colony on plate. | Colonies on control plate of treated cells (Aspergillus brasiliensis [12]): NC = Negative Control - Control plate of treated cells (10^6 cells) shows no colony on plate.

CC(C)O [Isopropanol]
Ct Treated (Serratia marcescens [2]; [15]): 29.10 and 30.70 and 31.00 and 29.90 and 30.30 | Mean Ct (Treated) (Serratia marcescens [2]; [15]): 30.20 | Δ Ct Viable − Dead (Serratia marcescens [2]; [15]): 13.20 | Ct Treated (Serratia marcescens [2]; [16]): 26.90 and 26.20 and 25.90 and 25.40 and 25.50 | Mean Ct (Treated) (Serratia marcescens [2]; [16]): 25.98 | Δ Ct Viable − Dead (Serratia marcescens [2]; [16]): 13.18 | Ct Treated (Escherichia coli [3]; [15]): 33.02 and 33.36 and 32.52 and 31.38 and 31.93 | Mean Ct (Treated) (Escherichia coli [3]; [15]): 32.44 | Δ Ct Viable − Dead (Escherichia coli [3]; [15]): 17.56 | Ct Treated (Escherichia coli [3]; [16]): 32.91 and 32.51 and 32.31 and 32.98 and 33.93 | Mean Ct (Treated) (Escherichia coli [3]; [16]): 32.93 | Δ Ct Viable − Dead (Escherichia coli [3]; [16]): 21.00 | Colonies on control plate of treated cells (Serratia marcescens [4]; 1 H at room temperature): NC = Negative Control - Control plate of treated cells (10^6 cells) shows no colony on plate. | Colonies on control plate of treated cells (Pseudomonas aeruginosa [5]; 1 H at room temperature): NC = Negative Control - Control plate of treated cells (10^6 cells) shows no colony on plate. | Ct Treated (Pseudomonas aeruginosa [8]; [15]): 34.62 and 34.83 and 34.29 and 33.99 and 38.81 | Mean Ct (Treated) (Pseudomonas aeruginosa [8]; [15]): 35.31 | Δ Ct Viable − Dead (Pseudomonas aeruginosa [8]; [15]): 10.99 | Ct Treated (Pseudomonas aeruginosa [8]; [16]): 34.59 and 33.28 and 33.21 and 34.18 and 33.26 | Mean Ct (Treated) (Pseudomonas aeruginosa [8]; [16]): 33.70 | Δ Ct Viable − Dead (Pseudomonas aeruginosa [8]; [16]): 13.45 | Ct Treated (Staphylococcus aureus [9]; [15]): 29.99 and 29.43 and 29.12 and 29.97 and 29.89 | Mean Ct (Treated) (Staphylococcus aureus [9]; [15]): 29.68 | Δ Ct Viable − Dead (Staphylococcus aureus [9]; [15]): 12.80 | Ct Treated (Staphylococcus aureus [9]; [16]): 26.32 and 26.40 and 25.27 and 24.94 and 26.57 | Mean Ct (Treated) (Staphylococcus aureus [9]; [16]): 25.90 | Δ Ct Viable − Dead (Staphylococcus aureus [9]; [16]): 13.09 | Colonies on control plate of treated cells (Escherichia coli [10]; 1 H at room temperature): NC = Negative Control - Control plate of treated cells (10^6 cells) shows no colony on plate. | Colonies on control plate of treated cells (Staphylococcus aureus [11]; 1 H at room temperature): NC = Negative Control - Control plate of treated cells (10^6 cells) shows no colony on plate.

Source: patent publication US9512474B2, “Molecular targets and methods for formulation screening and preservative efficacy testing” (LONZA WALKERSVILLE INC., priority 2011, dated 2016)
